According to patent US20160143862A1, “METHOD OF USING BETA-IONONE TO TREAT AND PREVENT DISEASE INDUCED BY PROPIONIBACTERIUM ACNES” (NATIONAL TAIWAN NORMAL UNIVERSTITY, priority 2014, published 2016):

Tests used:
[1] = test system: P. acnes-induced IL-8 production by THP-1 cells; experiment: inhibition of P. acnes-induced IL-8 production by THP-1 cells (enzyme immunoassay); assay type: cell-based, Human; settings: 10, 20, 50 μM; P. acnes MOI 75; 24-h incubation; p<0.001
Experimental: Propionibacterium acnes (BCRC 10723, purchased from the Bioresource Collection and Research Center, Hsinchu, Taiwan) was cultured in a brain heart infusion (BHI) broth. The bacteria were cultured in an anaerobic atmosphere using BBL GasPak systems.

[2] = test system: Propionibacterium acnes-induced ear swelling in ICR mice; experiment: P. acnes-induced mouse ear inflammation (ear thickness, biopsy weight, redness, neutrophil infiltration); assay type: in vivo
Description: In the animal experiment of this embodiment, four-week-old male […] were purchased from the Experimental Animal Center of the National Taiwan University. After 1 week of adaptation, the mice were randomly divided into three groups of six animals each. The three groups of mice are, namely a blank control group of mice injected with a phosphate buffer solution (hereinafter referred to as “PBS-control”), an experimental group of mice injected with Propionibacterium acnes (hereinafter referred to as “P. acnes group”), and an experimental group of mice injected with Propionibacterium acnes and beta-ionone (hereinafter referred to as “P. acnes+beta-ionone group”). Mice were housed in plastic cages, under standard temperature-controlled conditions with a 12 h/12 h light-dark cycle and free access to food and water throughout the experiments. The experiments are each carried out by following the steps described below, so as to inject 10 µL of liquid (phosphate buffer solution (PBS), P. acnes, or P. acnes+beta-ionone) into the mice' ears, respectively. […] Mercy killing is carried out to all the mice 24 hours after the aforesaid injections, and then the ear's swelling induced by P. acnes was quantified as the percentage increases in the thickness and weight of the left ear biopsy. The thickness of the mice's ears is measured with a micrometer caliper. […]

[3] = test system: human monocytic THP-1 cells; experiment: cytotoxicity of beta-ionone on THP-1 cells (cellular viability)
Experimental: Human monocytic THP-1 cells (BCRC 60430, purchased from the Bioresource Collection and Research Center, Hsinchu, Taiwan) were cultured in RPMI 1640 medium and supplemented with 10% of fetal bovine serum, 0.05 mM of 2-mercaptoethanol, and 100 units/mL of penicillin G sodium, 100 μg/mL of streptomycin sulfate, and 250 ng/mL of amphotericin B at 37° C. in a 5% CO2 humidified environment.
THP-1 cells are seeded at 2×10^5 cells/well in a 96-well plate with FBS-free RMPI 1640 medium, and are stimulated with Propionibacterium acnes (multiplicity of infection=75) alone or in combination with various concentrations of 10, 20, 50 μM of beta-ionone for a 24-h incubation.

SMILES: CC(=O)/C=C/C1=C(C)CCCC1(C)C [beta-ionone, (3E)-4-(2,6,6-trimethylcyclohex-1-en-1-yl)but-3-en-2-one]
- inhibitory effect on P. acnes-induced IL-8 production by THP-1 cells [1]: marked inhibitive effect
- effect on redness, neutrophils infiltration and swelling (ear thickness and biopsy weight) caused by P. acnes ([2]; 50 μg/10 μL injected into ear with 6×10^7 CFU P. acnes, 24 hours, p<0.01, p<0.001): effective in reducing the redness, neutrophils infiltration, and swelling
- redness and swelling of right ears (P. acnes + beta-ionone) versus left ears (P. acnes) ([2]; 50 μg/10 μL injected into ear, 24 hours after injection, FIG. 9): significantly abated redness and swelling
- cytotoxic effect on human monocytic THP-1 cells ([3]; beta-ionone at 10, 20, 50 μM): does not have any cytotoxic effect
- concentration with cytotoxic effect on THP-1 cells ([3]; cellular viability compared with untreated control, p<0.05, p<0.001): ≥ 100 µM
